{"source": "patent US11148998B2", "about": "“Dimethyl-nonatetraenyl-trimethyl-cyclohexyl compounds and uses thereof” (The Regents of the University of Michigan, priority 2017, dated 2021)", "key": {"human dermal fibroblasts [1]": {"test_system": "human dermal fibroblasts", "assay": "Retinoid-induced fibroblast survival under low-calcium conditions", "format": "cell-based", "details": "for protection of fibroblasts from lysis (percentage of initially present cells still viable): 0.1 to 5 μg/mL", "method": "(§1) Human dermal fibroblasts are isolated from skin biopsies as described previously and grown in monolayer culture using DMEM supplemented with 10% fetal bovine serum as culture medium (see, e.g., Varani J, et al., J Clin Invest. 1994; 94; Varani J, et al., J. Invest. Dermatol. 94:717-723, 1990). Growth is at 37° C. in a humidified atmosphere containing 5% CO2 and 95% air. For experimental studies, cells are plated at 5×10^4 cells per well in wells of a 24-well culture dish in the same culture medium. One day later, cells are washed and the DMEM culture medium is replaced with Keratinocyte Basal Medium (KBM).\nIn this assay, low-passage human dermal fibroblasts are grown for three days in Keratinocyte Basal Medium (KBM) at a calcium concentration (0.1 mM) that is too low to support survival. […] How retinoids act to prevent fibroblast lysis is not fully understood, but part of the mechanism involves modulation of calcium transit across the cell membrane in the presence of the active retinoids (see, e.g., Varani J, et al., Am. J. Path. 136:1275-1281, 1990; Varani K, et al., Am J. Pathol. 147:718-729, 1995; Varani J, et al., Amer. J. Pathol. 148: 1307-1312, 1996)."}, "human dermal fibroblasts [2]": {"test_system": "human dermal fibroblasts", "assay": "Retinoid-induced fibroblast cytotoxicity", "format": "cell-based", "details": "KBM 1.5 mM calcium, 72 hours, up to 5 μg/mL", "method": "as §1\nThis assay is similar to the fibroblast cytotoxicity assay except that the human dermal fibroblasts are plated in culture medium (KBM) supplemented with a concentration of calcium (1.5 mM) that supports survival on its own. The biologically active retinoids are included in the culture medium and the cells incubated for 72 hours. Under such conditions, there is little net increase in growth with added retinoid, and at high concentrations, cytotoxicity occurs (see, e.g., Varani, J., et al., J. Invest. Dermatol. 101:839-842).\nThat is, there was little decline in cell numbers compared to control with retinoid concentrations up to 5 μg/mL."}, "rhino mouse skin": {"test_system": "rhino mouse skin", "assay": "Rhino mouse topical treatment: skin histology (horn-filled utriculi, epidermal thickness, inflammation)", "format": "in vivo", "details": "for Epidermal thickness / Utriculus number / skin structure in histology (dermal thickness, utriculi, necrosis, infiltration) / inflammatory response / inflammatory cell infiltrate in histological sections (in words) / Inflammatory index: 21 days; for Inflammatory index: scored 0 to 4+", "source_text": "FIGS. 12A-C: Efficacy of retinoids at normalizing structure of rhino mouse skin after topical treatment for 21 days.\nFIGS. 13A-C: Dose related effect of Example 2 on rhino mouse skin.\nThe rhinomouse model is an industry-standard pre-clinical model for evaluation of retinoids for anti-acne activity. The mice can be treated topically over a course of days with the desired compound (either formulated or in liquid solvent). During the course of treatment, the animals can be evaluated grossly for skin irritation. At the end of the treatment phase, the animals are euthanized. Skin from treated sites can be evaluated for efficacy—reduction in the number of horn-filled utriculi—and for histological evidence of inflammation.\nAs a control, Tretinoin-0.1% was used. […] This is a commonly-prescribed anti-acne medicine.\nOne day after the last treatment, animals were euthanized. The animals were injected with 7 ml 10% buffered formalin after euthanasia. 15 minutes later the treated area on the back of the mouse was removed and cut into 8 pieces. Every other piece was taken, so four pieces of skin were mounted in one cassette and fixed for histology. An extra piece of skin from a non-treated area was also evaluated.\nHematoxylin and eosin stained sections were evaluated microscopically for epidermal thickness with measurements made in the inter-follicular regions at 4 representative sites per tissue strip.\nThe number of horn-filled utriculi was determined by direct counting in the entire section of skin. Each of the four sections per biopsy was used for determining the number of utriculi. Section lengths were measured as a way to normalize findings. Typically, the section of skin varied from 16-20 mm.\nSlides were examined microscopically and inflammation was scored on a 0 to 4+ basis. A score of zero indicated no inflammation while increasing collection of inflammatory cells was identified with increasing score. Slides were also evaluated to determine if inflammation was confined to the dermis or whether there was epidermal inflammation. Dermal inflammation was assessed to determine if inflammatory cells were scattered throughout the dermis or whether small abscesses were also present. Finally, the inflammatory lesions were evaluated to determine whether they consisted of primarily mononuclear cells, granulocytic cells or both. A similar scale has been used previously in the assessment of skin irritation.\nAt the end of the in-life portion of the study, mice were euthanized by CO2 overdose. Hematoxylin and eosin-stained histological sections from each mouse in the control, ATRA-treated and Compound 2-treated groups were evaluated with regard to the number of horn-filled utriculi, epidermal thickness, and inflammation. Briefly, the epidermis of control mice consisted of a thin epidermis with large numbers of horn-filled utriculi (98+10 per 20 mm of epidermal linear length). […] Both the ATRA-treated mouse (top right panel) the Compound 2 treated skin (bottom panel) show both much thickened […] and disappearance of utriculi. […] There were large numbers of inflammatory cells in the dermis. Microabscesses could be seen in places, and migration of inflammatory cells into the epidermis was also evident. The infiltrate consisted of both mononuclear cells and granulocytes. […] The three other experimental retinoids were also examined along with Compound 2. […] In FIG. 13 it can be seen that during the dosing period 0.1% of Compound 2 led to skin thickening, but incomplete resolution of the utricali, whereas at 0.3% the utricali were more fully resolved."}, "[3]": {"test_system": "normal human skin in organ culture", "assay": "Retinoid-induced skin thickening in human skin organ culture", "format": "cell-based", "details": "1 μg/mL, 8 days organ culture", "method": "Human skin biopsies were incubated for 8 days in organ culture. […] At the end of the incubation period, the tissue was fixed for histology and examined at the light microscopy level after staining with hematoxylin and eosin. […] These abnormalities are not seen in the ex. 1—treated skin section.\nReplicate 2-mm punch biopsies (up to 12 per subject) are obtained from hip skin of volunteers 18-70 years of age. The participation of human subjects is approved by the University of Michigan Institutional Review Board and all subjects provide written informed consent prior to their inclusion in the study. The punch biopsies are incubated in wells of a 24 well dish (one tissue piece per 200-500 μL of culture medium). Culture medium consists of KBM. For organ culture, the culture medium is supplemented with calcium chloride to a final calcium concentration of 1.5 mM. One or two wells are typically left as control while the others are treated as desired. Fresh culture medium and treatments are provided at 2-day intervals. Organ culture-conditioned medium collected at day-2 is saved for cytokine assessment or for measure of other bioactive molecules as desired. At the end of the incubation period (typically, day-8), the tissue is fixed in 10% buffered formalin and used for histology. The organ culture protocol used here is virtually identical to that described in several past reports (see, e.g., Varani J, et al., J Clin Invest. 1994; 94:1747-1756; Varani J, et al., Am J Pathol. 1993 January; 142(1):189-98; Lateef H, et al., Am J Pathol. 2004; 165:167-174; Varani J, et al., Exp Mol Pathol. 2004; 77(3):176-83; Varani J, et al., Am J Pathol. 1993 June; 142(6):1813-22; Varani J, et al., Toxicol. Pathol. 35:693-701, 2007; Rittié L, et al., J Invest Dermatol, 126:732-739, 2006)."}, "[4]": {"details": "topical, concentration not given"}}}
{"smiles": "CC1=C(/C=C/C(C)=C/C=C/C(C)=C/C(=O)O)C(C)(C)CCC1", "note": "[ATRA, all-trans retinoic acid, reference compound]", "values": [{"measurement": "fall-off in cell numbers", "setting": "human dermal fibroblasts [1]; 5 μg/mL, low-calcium survival assay", "result": "incipient toxicity"}, {"measurement": "concentration at which protection was optimal", "setting": "human dermal fibroblasts [1]; KBM 0.1 mM calcium, three days", "result": 1.0, "unit": "µg/mL"}, {"measurement": "protection of fibroblasts from lysis (percentage of initially present cells still viable)", "setting": "human dermal fibroblasts [1]; KBM 0.1 mM calcium, three days", "result": "capable of protecting fibroblasts from lysis under low-calcium conditions"}, {"measurement": "fibroblast cytotoxicity (decline in cell numbers compared to control)", "setting": "human dermal fibroblasts [2]", "result": "lack of fibroblast cytotoxicity at concentrations as high as 5 μg/mL"}, {"measurement": "Epidermal thickness", "setting": "rhino mouse skin; 0.1% topical", "result": "68 ± 17"}, {"measurement": "Utriculus number", "setting": "rhino mouse skin; 0.1% topical", "result": "2 ± 2 per 20 mm of epidermal linear length"}, {"measurement": "skin structure in histology (dermal thickness, utriculi, necrosis, infiltration)", "setting": "rhino mouse skin; 0.1% topical", "result": "overall dermal layer is considerably thicker, and the utriculi have gone, the dermal layer has large necrotic areas, and is heavily infiltrated with activated leukocytes and macrophages"}, {"measurement": "inflammatory response / inflammatory cell infiltrate in histological sections (in words)", "setting": "rhino mouse skin; [4]", "result": "intense inflammatory cell infiltrate"}, {"measurement": "epidermal thickening (hyperplastic changes), histology", "setting": "[3]", "result": "hyperplastic changes (increased epidermal thickening)"}, {"measurement": "toxicity in the upper epidermis, histology", "setting": "[3]", "result": "evidence of toxicity in the upper epidermis (i.e., incomplete keratinization with loss of granular layer)"}]}
{"smiles": "CC1=C(/C=C/C(C)=C\\C=C\\C(C)=C\\C(=O)N(C)CC(=O)C(C)(C)C)C(C)(C)CCC1", "note": "[Example 1, (2E,4E 6Z,8E)-N-(3,3-dimethyl-2-oxobutyl)-N,3,7-trimethyl-9-(2,6,6-trimethylcyclohex-1-en-1-yl)nona-2,4,6,8-tetraenamide]", "values": [{"measurement": "protection of fibroblasts from lysis (percentage of initially present cells still viable)", "setting": "human dermal fibroblasts [1]; KBM 0.1 mM calcium, three days", "result": "capable of protecting fibroblasts from lysis under low-calcium conditions"}, {"measurement": "protection of fibroblasts from lysis (percentage of initially present cells still viable)", "setting": "human dermal fibroblasts [1]; KBM 0.1 mM calcium, three days, listed as Compound 1", "result": "as effective as ATRA"}, {"measurement": "inflammatory response / inflammatory cell infiltrate in histological sections (in words)", "setting": "rhino mouse skin; [4]", "result": "did not produce an inflammatory response"}, {"measurement": "number of utriculi compared to control (in words)", "setting": "rhino mouse skin; [4]", "result": "reduced the number of utriculi as compared to control"}, {"measurement": "epidermal thickening (hyperplastic changes), histology", "setting": "[3]", "result": "hyperplastic changes (increased epidermal thickening)"}, {"measurement": "toxicity in the upper epidermis, histology", "setting": "[3]", "result": "not seen"}]}
{"smiles": "CC1=C(/C=C/C(C)=C\\C=C\\C(C)=C\\C(=O)N(C)CC(=O)c2ccccc2)C(C)(C)CCC1", "note": "[Example 2, (2E,4E 6Z,8E)-N,3,7-trimethyl—N-(2-oxo-2-phenylethyl)-9-(2,6,6-trimethylcyclohex-1-en-1-yl)nona-2,4,6,8-tetraenamide]", "values": [{"measurement": "protection of fibroblasts from lysis (percentage of initially present cells still viable)", "setting": "human dermal fibroblasts [1]; KBM 0.1 mM calcium, three days", "result": "capable of protecting fibroblasts from lysis under low-calcium conditions"}, {"measurement": "Epidermal thickness", "setting": "rhino mouse skin; 0.1% topical", "result": "45 ± 8"}, {"measurement": "Utriculus number", "setting": "rhino mouse skin; 0.1% topical", "result": "7 ± 5 per 20 mm of epidermal linear length"}, {"measurement": "skin structure in histology (dermal thickness, utriculi, necrosis, infiltration)", "setting": "rhino mouse skin; 0.1% topical", "result": "normalization of dermal thickness, but still many structural remnants of utriculi"}, {"measurement": "Inflammatory index", "setting": "rhino mouse skin; 0.1% topical", "result": "1.1 ± 0.6"}, {"measurement": "Epidermal thickness", "setting": "rhino mouse skin; 0.3% topical", "result": "44 ± 6"}, {"measurement": "Utriculus number", "setting": "rhino mouse skin; 0.3% topical", "result": "5 ± 3 per 20 mm of epidermal linear length"}, {"measurement": "Inflammatory index", "setting": "rhino mouse skin; 0.3% topical", "result": "0.9 ± 0.4"}, {"measurement": "inflammatory response / inflammatory cell infiltrate in histological sections (in words)", "setting": "rhino mouse skin; [4]", "result": "little inflammatory cell infiltrate"}]}
